Assay results taken from BindingDB's records for doi:10.1016/j.bmc.2010.01.042 (Nerviano Medical Sciences, 2010).

Biological target: 3-phosphoinositide-dependent protein kinase 1 (Homo sapiens) (UniProt O15530)
Test: Inhibition of PDK1 by scintillation proximity assay

Structure (SMILES)	IC50 [µM]
CC(C)(C)C(=O)N1Cc2c(n[nH]c2NC(=O)c2cc(F)cc(F)c2)C1(C)C [N-[5-(2,2-Dimethylpropanoyl)-6,6-dimethyl-1,4,5,6-tetrahydropyrrolo[3,4-c]pyrazol-3-yl]-3,5-difluorobenzamide]	> 10
CC(C)CC(=O)Nc1[nH]nc2c1CN(C(=O)C1CCN(C)CC1)C2(C)C	> 10
